Results as given in patent publication US6685617B1, “Inhibitors of α4β1 mediated cell adhesion” (Pharmacia & Upjohn Company, priority 1998, dated 2004).
Where a name gives a salt, the structure may show the parent alone.

Tests used:
[1] = biological target: T1, α4β1 integrin (Jurkat T-cell adhesion to IL-1 stimulated endothelial cell monolayers) (Homo sapiens, UniProt P05556+P13612); experiment: Jurkat-endothelial cell adhesion assay (Jurkat EC); format: cell-based; settings: Jurkat cells on IL-1 stimulated human umbilical vein endothelial cells; read-out: JK/EC (Jurkat EC Assay IC50 value range)
T1 construct: a T-cell line, Jurkat, known to express the α4β1 integrin; host or cells: Jurkat T-cell line
Summary of the method: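 Adhesion was expressed as percent of compound-free fluorescence after 20 min at 37° C (following 5 min settling on ice) of BCECF-loaded Jurkat T cells on washed HUVEC monolayers. The endothelium, passage 6 or lower, had received 0.1 ng/ml recombinant IL-1 for 4 hr at 37° C; compound was premixed with the T cells, typically at 100, 20, 5 and 1.25 μM.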

[2] = biological target: T2, α4β1 integrin (Jurkat cell adhesion to immobilized CS-1 derived peptide CLHPGEILDVPST) (Homo sapiens, UniProt P05556+P13612); experiment: Jurkat-CS-1 assay; format: cell-based; settings: Jurkat cells on CS-1 peptide coated plates; read-out: JK/CS-1 (Jurkat CS-1 Assay IC50 value range)
T2 construct: 100 μl of Jurkat cells (2.5×10^6 cells/ml) in DMEM plus BSA; host or cells: Jurkat T-cell line
Summary of the method: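 CS-1 peptide was SPDP-crosslinked onto HSA-coated plates and blocked with BSA. Jurkat cells (2.5×10^6 cells/ml) in DMEM/BSA were mixed with compound, generally at 100, 20, 5 and 1.25 μM, and allowed to adhere for 1 hr at 37° C. Bound cells were fixed, stained with toluidine blue and quantified by OD590.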

T2 sequence (P13612 34-1032): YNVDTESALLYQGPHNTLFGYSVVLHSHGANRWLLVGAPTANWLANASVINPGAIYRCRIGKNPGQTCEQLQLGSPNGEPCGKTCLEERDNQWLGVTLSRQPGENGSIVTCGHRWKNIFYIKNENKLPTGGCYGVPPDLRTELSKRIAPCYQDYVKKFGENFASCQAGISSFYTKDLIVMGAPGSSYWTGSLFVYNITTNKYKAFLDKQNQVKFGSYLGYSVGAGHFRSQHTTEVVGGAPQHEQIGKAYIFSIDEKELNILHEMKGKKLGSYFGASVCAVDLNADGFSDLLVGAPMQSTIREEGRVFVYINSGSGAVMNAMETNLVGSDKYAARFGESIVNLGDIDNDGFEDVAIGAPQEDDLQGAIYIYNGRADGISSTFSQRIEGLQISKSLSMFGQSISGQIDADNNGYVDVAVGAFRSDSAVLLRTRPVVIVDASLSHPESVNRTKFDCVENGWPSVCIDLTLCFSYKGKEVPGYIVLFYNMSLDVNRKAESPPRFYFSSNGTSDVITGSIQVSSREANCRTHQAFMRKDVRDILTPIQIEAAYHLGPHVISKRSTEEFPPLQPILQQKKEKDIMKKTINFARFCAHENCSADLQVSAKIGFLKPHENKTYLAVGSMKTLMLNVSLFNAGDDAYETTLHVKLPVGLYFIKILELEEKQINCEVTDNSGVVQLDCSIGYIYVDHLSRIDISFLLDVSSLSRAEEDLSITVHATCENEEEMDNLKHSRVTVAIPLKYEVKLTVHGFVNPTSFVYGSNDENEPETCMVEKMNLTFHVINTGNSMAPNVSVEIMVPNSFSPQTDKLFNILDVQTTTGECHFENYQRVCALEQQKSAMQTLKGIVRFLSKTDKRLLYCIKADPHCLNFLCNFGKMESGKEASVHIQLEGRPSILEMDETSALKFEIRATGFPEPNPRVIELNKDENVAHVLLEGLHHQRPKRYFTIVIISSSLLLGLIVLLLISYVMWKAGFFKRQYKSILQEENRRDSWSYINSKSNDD
T2 sequence (P05556 21-798): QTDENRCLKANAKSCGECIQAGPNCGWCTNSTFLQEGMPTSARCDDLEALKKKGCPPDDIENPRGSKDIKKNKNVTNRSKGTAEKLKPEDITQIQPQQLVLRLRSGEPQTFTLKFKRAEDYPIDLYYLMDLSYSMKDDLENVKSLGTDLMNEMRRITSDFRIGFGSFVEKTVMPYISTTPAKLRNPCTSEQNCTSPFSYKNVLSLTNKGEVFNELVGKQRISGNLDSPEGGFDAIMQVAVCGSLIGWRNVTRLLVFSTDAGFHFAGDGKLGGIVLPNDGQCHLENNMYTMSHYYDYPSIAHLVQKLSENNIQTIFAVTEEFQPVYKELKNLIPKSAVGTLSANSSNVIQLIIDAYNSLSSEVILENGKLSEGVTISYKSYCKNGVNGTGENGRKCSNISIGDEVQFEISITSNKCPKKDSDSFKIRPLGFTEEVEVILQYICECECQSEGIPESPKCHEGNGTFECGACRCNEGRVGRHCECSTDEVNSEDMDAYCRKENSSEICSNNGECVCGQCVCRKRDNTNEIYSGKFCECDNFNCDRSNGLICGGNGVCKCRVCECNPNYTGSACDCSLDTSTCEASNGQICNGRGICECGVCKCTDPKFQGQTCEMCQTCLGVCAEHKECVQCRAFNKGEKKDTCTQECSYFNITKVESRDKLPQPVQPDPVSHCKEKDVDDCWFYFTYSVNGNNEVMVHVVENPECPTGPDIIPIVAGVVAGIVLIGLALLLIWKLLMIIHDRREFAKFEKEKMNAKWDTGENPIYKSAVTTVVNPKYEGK
T1 sequence (P13612 34-1032): as the sequence (P13612 34-1032) above
T1 sequence (P05556 21-798): as the sequence (P05556 21-798) above

For `CN(CCc1ccccn1)C(=O)N1CSC[C@@H]1C(=O)N[C@@H](Cc1ccc(OCc2c(Cl)cccc2Cl)cc1)C(=O)O` (relative stereo) [Example 153, [S-(R*,R*)]-4-[[[1-Carboxy-2-[4-[(2,6-dichlorophenyl)methoxy]phenyl]ethyl]amino]-carbonyl]-N-methyl-N-[2-(2-pyridinyl)ethyl]-3-thiazolidinecarboxamide], the melting point was 80 °C, the IC50 [1] was ≥ 1000 nM and the IC50 [2] was ≥ 750 nM.

In the case of `CCOC(=O)N1[C@@H](C(=O)N[C@@H](Cc2ccc(NC(=O)c3c(Cl)cccc3Cl)cc2)C(=O)OC)C[C@@H]1C(=O)OC` [Example 140, [2R-(2α,4β(S*)]-4-[[[1-[[4-[(2,6-Dichlorobenzoyl)amino]phenyl]methyl]-2-methoxy-2-oxoethyl]amino]carbonyl]-1,2-azetidinedicarboxylic Acid 1-Ethyl-2-methyl Diester], the melting point is reported as 97 to 99 °C, the IC50 [1] is reported as ≥ 1000 nM and the IC50 [2] is reported as ≥ 750 nM.

In the case of `COC(=O)[C@H](Cc1ccc(NC(=O)c2c(Cl)cccc2Cl)cc1)NC(=O)[C@H]1CSCN1C(=O)N(CCO)CCO` [Example 57, N-[[(4S)-3-[[bis(2-Hydroxyethyl)amino]carbonyl]-4-thiazolidinyl]carbonyl]-4-[(2,6-dichlorobenzoyl)amino]-L-phenylalanine Methyl Ester], the melting point is reported as 105 to 107 °C, the IC50 [1] is reported as ≥ 1000 nM and the IC50 [2] is reported as ≥ 750 nM.

In the case of `C[C@@H](c1ccccc1)N1[C@H](C(=O)O)C[C@H]1C(=O)N[C@@H](Cc1ccc(NC(=O)c2c(Cl)cccc2Cl)cc1)C(=O)O` (as salt: salt) [Example 129, [2S-[1(R*),2α,4β(R*)]]-4-[[[1-Carboxy-2-[4-[(2,6-dichlorobenzoyl)amino]phenyl]ethyl]-amino]carbonyl]-1-(1-phenylethyl)-2-azetidinecarboxylic Acid Dilithium Salt], the melting point is reported as 270 °C.

For `O=C(Nc1ccc(C[C@H](NC(=O)[C@@H]2CSCN2C(=O)c2cccnc2)C(=O)O)cc1)c1c(Cl)cccc1Cl` [Example 239], the IC50 [1] was ≥ 1000 nM and the IC50 [2] was 50 to 750 nM.

With `CC(C)(C)OC(=O)N1CSC(C)(C)[C@@H]1C(=O)N[C@@H](Cc1ccc(NC(=O)c2c(Cl)cccc2Cl)cc1)C(=O)O` (relative stereo) [Example 29, [S-(R*,R*)]-4-[[[1-Carboxy-2-[4-[(2,6-dichlorobenzoyl)amino]phenyl]ethyl]amino]carbonyl]-5,5-dimethyl-3-thiazolidinecarboxylic Acid 3-(1,1-Dimethylethyl)ester] the IC50 [1] was 250 to 1000 nM and the IC50 [2] was 50 to 750 nM.

In the case of `COCCC(=O)N1CSC[C@@H]1C(=O)N[C@@H](Cc1ccc(NC(=O)c2c(Cl)cccc2Cl)cc1)C(=O)O` [Example 262], the IC50 [1] is reported as ≤ 250 nM and the IC50 [2] is reported as ≤ 50 nM.

With `CC(=O)CCC(=O)N1CCC[C@H]1C(=O)N[C@@H](Cc1ccc(NC(=O)c2c(Cl)cccc2Cl)cc1)C(=O)O` [Example 231] the IC50 [1] was ≥ 1000 nM and the IC50 [2] was 50 to 750 nM.

With `O=C(Nc1ccc(C[C@H](NC(=O)[C@H]2CSCN2C(=O)OC23CC4CC(CC(C4)C2)C3)C(=O)O)cc1)c1c(Cl)cccc1Cl` (relative stereo) [Example 23, [S-(R*,R*)]-4-[[[1-Carboxy-2-[4-[(2,6-dichlorobenzoyl)amino]phenyl]ethyl]amino]carbonyl]-3-thiazolidinecarboxylic Acid 3-(Tricyclo[3.3.1.1^3,7]dec-1-yl)ester] the IC50 [1] was ≤ 250 nM and the IC50 [2] was ≤ 50 nM.

Work on `O=C(O)CCC(=O)N1CCCCC1C(=O)N[C@@H](Cc1ccc(NC(=O)c2c(Cl)cccc2Cl)cc1)C(=O)O` (stereo partly shown) [Example 167] yielded an IC50 [1] of 250 to 1000 nM and an IC50 [2] of 50 to 750 nM.

In the case of `O=C(Nc1ccc(C[C@H](NC(=O)[C@H]2COCN2C(=O)OCc2ccccc2)C(=O)O)cc1)c1c(Cl)cccc1Cl` [Example 127, [R-(R*,S*)]-4-[[[1-Carboxy-2-[4-[(2,6-dichlorobenzoyl)amino]phenyl]ethyl]amino]-carbonyl]-3-oxazolidinecarboxylic Acid 3-(Phenylmethyl)ester], the IC50 [1] is reported as ≤ 250 nM and the IC50 [2] is reported as 50 to 750 nM.

In the case of `COC(=O)[C@H](Cc1ccc(NC(=O)c2c(Cl)cccc2Cl)cc1)NC(=O)[C@H]1CSCN1S(=O)(=O)c1ccc(C(F)(F)F)cn1` [Example 44, 4-[(2,6-Dichlorobenzoyl)amino]-N-[[(4S)-3-[[5-(trifluoromethyl)-2-pyridinyl]sulfonyl]-4-thiazolidinyl]carbonyl]-L-phenylalanine Methyl Ester], the IC50 [1] is reported as ≥ 1000 nM and the IC50 [2] is reported as ≥ 750 nM.

Work on `O=C(O)/C=C/C(=O)N1CCCC[C@@H]1C(=O)N[C@@H](Cc1ccc(NC(=O)c2c(Cl)cccc2Cl)cc1)C(=O)O` [Example 248] yielded an IC50 [1] of 250 to 1000 nM and an IC50 [2] of 50 to 750 nM.

With `COC(=O)[C@H](Cc1ccc(NC(=O)c2c(Cl)cccc2Cl)cc1)NC(=O)[C@@H]1CSCN1C(=O)OC(C)(C)C` (stereo in doubt) [Example 13, [R-(R*,S*)]-4-[[[1-[[4-[(2,6-Dichlorobenzoyl)amino]phenyl]methyl]-2-methoxy-2-oxoethyl]amino]carbonyl]-3-thiazolidinecarboxylic Acid 3-(1,1-Dimethylethyl)ester] the IC50 [1] was ≥ 1000 nM and the IC50 [2] was ≥ 750 nM.

With `COCCC(=O)N1CCCC(C(=O)N[C@@H](Cc2ccc(NC(=O)c3c(Cl)cccc3Cl)cc2)C(=O)O)C1` (stereo partly drawn) [Example 173, 4-[(2,6-Dichlorobenzoyl)amino]-N-[[1-(3-methoxy-1-oxopropyl)-3-piperidinyl]carbonyl]-L-phenylalanine] the IC50 [1] was ≤ 250 nM and the IC50 [2] was 50 to 750 nM.

For `COC(=O)[C@H](Cc1ccc(OCc2c(Cl)cccc2Cl)cc1)NC(=O)CCC1(C(=O)O)CCC(=O)N1` (stereo partly drawn) [Example 116, 2-[3-[[(1S)-1-[[4-[(2,6-Dichlorophenyl)methoxy]phenyl]methyl]-2-methoxy-2-oxoethyl]amino]-3-oxopropyl]-5-oxoproline], the IC50 [1] was ≥ 1000 nM and the IC50 [2] was ≥ 750 nM.

For `O=C(Nc1ccc(C[C@H](NC(=O)[C@H]2CSCN2S(=O)(=O)c2ccc(C(F)(F)F)cn2)C(=O)O)cc1)c1c(Cl)cccc1Cl` [Example 45], the IC50 [1] was 250 to 1000 nM and the IC50 [2] was 50 to 750 nM.

Compound `O=C(Nc1ccc(C[C@H](NC(=O)[C@@H]2CSCCN2)C(=O)O)cc1)c1c(Cl)cccc1Cl` [Example 101, 4-[(2,6-Dichlorobenzoyl)amino]-N-[[(3R)-3-thiomorpholinyl]carbonyl]-L-phenylalanine Monohydrochloride] has an IC50 [1] of 250 to 1000 nM and an IC50 [2] of 50 to 750 nM.

In the case of `O=C(O)c1cccc(C(=O)N2CCC(C(=O)N[C@@H](Cc3ccc(NC(=O)c4c(Cl)cccc4Cl)cc3)C(=O)O)CC2)c1` [Example 220], the IC50 [1] is reported as ≥ 1000 nM and the IC50 [2] is reported as 50 to 750 nM.

With `CCOC(=O)N1CSC[C@@H]1C(=O)N[C@@H](Cc1ccc(OCc2c(Cl)cccc2Cl)cc1)C(=O)OC` (relative stereo) [Example 34, [S-(R*,R*)]-4-[[[1-[4-[(2,6-Dichlorophenyl)methoxy]phenylmethyl]-2-methoxy-2-oxoethyl]amino]carbonyl]-3-thiazolidinecarboxylic Acid 3-Ethyl Ester] the IC50 [1] was ≥ 1000 nM and the IC50 [2] was 50 to 750 nM.

With `COC(=O)[C@H](Cc1ccc(NC(=O)c2c(Cl)cccc2Cl)cc1)NC(=O)[C@H]1CSCN1C(=O)OC12CC3CC(CC(C3)C1)C2` (relative stereo) [Example 22, [S-(R*,R*)]-4-[[[1-[[4-[(2,6-Dichlorobenzoyl)amino]phenyl]methyl]-2-methoxy-2-oxoethyl]amino]carbonyl]-3-thiazolidinecarboxylic Acid 3-(Tricyclo[3.3.1.1^3,7]dec-1-yl)ester] the IC50 [1] was ≥ 1000 nM and the IC50 [2] was ≥ 750 nM.

In the case of `COC(=O)[C@H](Cc1ccc(NC(=O)c2c(Cl)cccc2Cl)cc1)NC(=O)[C@@H]1N(C(=O)OC(C)(C)C)CSC1(C)C` (relative stereo) [Example 28, [S-(R*,R*)]-4-[[[1-[[4-[(2,6-Dichlorobenzoyl)amino]phenyl]methyl]-2-methoxy-2-oxoethyl]amino]carbonyl]-5,5-dimethyl-3-thiazolidinecarboxylic Acid 3-(1,1-Dimethylethyl)ester], the IC50 [1] is reported as ≥ 1000 nM and the IC50 [2] is reported as ≥ 750 nM.

With `COC(=O)[C@H](Cc1ccc(NC(=O)c2c(Cl)cccc2Cl)cc1)NC(=O)[C@H]1COCN1C(=O)OCc1ccccc1` [Example 126, [R-(R*S*)]-4-[[[1-[[4-[(2,6-Dichlorobenzoyl)amino]phenyl]methyl]-2-methoxy-2-oxoethyl]amino]carbonyl]-3-oxazolidinecarboxylic Acid 3-Phenylmethyl Ester] the IC50 [1] was ≥ 1000 nM and the IC50 [2] was ≥ 750 nM.

With `O=C(O)CCC(=O)N1CCSCC1C(=O)N[C@@H](Cc1ccc(OCc2c(Cl)cccc2Cl)cc1)C(=O)O` (stereo in doubt) [Example 105, [R-(R*,S*)]-3-[[[1-Carboxy-2-[4-[(2,6-dichlorophenyl)methoxy]phenyl]ethyl]amino]carbonyl]-γ-oxo-4-thiomorpholinebutanoic Acid] the IC50 [1] was ≥ 1000 nM and the IC50 [2] was 50 to 750 nM.

In the case of `O=C(O)[C@H](Cc1ccc(OCc2c(Cl)cccc2Cl)cc1)NC(=O)[C@H]1CSCN1C(=O)OCCN1CCCCC1` (relative stereo) [Example 152, [S-(R*,R*)]-4-[[[1-Carboxy-2-[4-[(2,6-dichlorophenyl)methoxy]phenyl]ethyl]amino]carbonyl]-3-thiazolidinecarboxylic Acid 3-[2-(1-Piperidinyl)ethyl]ester], the IC50 [1] is reported as ≤ 250 nM and the IC50 [2] is reported as ≤ 50 nM.
